The assay deals with SH-SY5Y adrenal tumors. The assay is described as follows: In vivo therapeutic studies, orthotopic neuroblastoma xenograft. Also noted: species or system SCID mice. To be noted: orthotopic SH-SY5Y model; free DXR by standard or metronomic dosing.

Each structure is given as a SMILES string.

Description: Five-week-old female SCID mice were purchased from Harlan Laboratories (Harlan Italy-S. Pietro al Natisone, UD). Mice (6-8 mice/group) were anaesthetised and injected with the different NB cell lines (2.5×10^6 cells in 20 μl of HEPES buffer), after laparatomy, in the capsule of the left adrenal gland. […] Mice were monitored at least two times weekly for evidence of tumor development, tumor size was quantified, and evidence of tumor-associated morbidity was noted.
2.5×10^6 SH-SY5Y cells were injected orthotopically in the left adrenal gland of mice. […] At various time-points, mice were sacrificed and tumors were measured with calipers. Tumor volumes were calculated by the formula π/6 [w1× (w2)^2], where w1 represented the largest tumor diameter and w2 represented the smallest tumor diameter. The body weight and general physical status of the animals were recorded daily and the mice were terminated when tumor reached 1000-1200 mm^3. […] Weight due to tumor burden was calculated by subtracting the normal wet organ weight from each tumor-bearing organ. In some experiments, mice were monitored routinely for weight loss, and survival times were used as the main criterion for determining treatment efficacy.
The statistical significance of differential findings between experimental groups and controls was determined by Student's t-test and considered significant if two-tailed P values were <0.05. […]

For the molecule `COc1cccc2c1C(=O)c1c(O)c3c(c(O)c1C2=O)C[C@@](O)(C(=O)CO)C[C@@H]3O[C@H]1C[C@H](N)[C@H](O)[C@H](C)O1` [free DXR, doxorubicin], the therapeutic effect entry is “lack of therapeutic effect”.

For the origin of these results see patent US7479483B2, “Tumor-targeted drug delivery systems and uses thereof” (G. Gaslini Children's Hospital, priority 2003, dated 2009).
